Data taken from ChEMBL document CHEMBL1159273, “[Cytotoxicity of aspidospermane indole alkaloids with a modified tryptamine chain]” (J Nat Prod, 1995).

Tested on: L1210
Experiment: Cytotoxicity against mouse L1210 cells after 48 hrs by MTT method
Type: functional, cell-based
Conditions: L1210, 48 h

Row | Structure (SMILES) | IC50
1 | CC[C@]12CCC[N+]3([O-])C[C@@H](Br)[C@]4(C(=Nc5ccccc54)[C@@](Cl)(C(=O)OC)C1)[C@H]23 (some centres not stated) | 14.1 µM
2 | CC[C@]12CCC[N+]3([O-])CC[C@]4(C(=Nc5ccccc54)[C@@](Cl)(C(=O)OC)C1)[C@H]23 (some centres not stated) | 27.4 µM
3 | COc1cccc2c1C(=O)c1c(O)c3c(c(O)c1C2=O)C[C@@](O)(C(=O)CO)C[C@@H]3O[C@H]1C[C@H](N)[C@H](O)[C@H](C)O1 [DOXORUBICIN] | 0.03 µM
4 | CC[C@]12CCCN3[C@@H](OC)C[C@]4(C(=Nc5ccccc54)[C@@](Cl)(C(=O)OC)C1)[C@@H]32 | 3.1 µM
5 | CC[C@]12CCCN3CC[C@@]4(c5ccccc5N5[C@H]4[C@]5(C(=O)OC)C1)[C@@H]32 | 156 µM
6 | CC[C@]12CCCN3C[C@@H](Br)[C@@]4(c5ccccc5N[C@H]4[C@@](Cl)(C(=O)OC)C1)[C@@H]32 | 46.8 µM
7 | CC[C@]12CCCN3C[C@@H](Br)[C@@]4(c5ccccc5N5[C@H]4[C@]5(C(=O)OC)C1)[C@@H]32 | 141 µM
